Series [1] relates to Staphylococcus aureus. Put plainly: Antibacterial activity against Staphylococcus aureus ATCC 25923 assessed as growth inhibition measured after 18 hrs by CLSI based method. It counts as functional. The note with it: ATCC 25923, 18 h.
Series [2] concerns Staphylococcus epidermidis. Put plainly: Antibacterial activity against Staphylococcus epidermidis PCM 2118 assessed as growth inhibition measured after 18 hrs by CLSI based method. The class given is functional. Particulars: PCM 2118, 18 h.
Series [3] relates to Escherichia coli. Kind of series: Antibacterial activity against Escherichia coli ATCC 25922 assessed as growth inhibition measured after 18 hrs by CLSI based method. The class given is functional. The note with it: ATCC 25922, 18 h.
Series [4] deals with Pseudomonas aeruginosa. Kind of series: Antibacterial activity against Pseudomonas aeruginosa ATCC 9027 assessed as growth inhibition measured after 18 hrs by CLSI based method. The class given is functional. Particulars: ATCC 9027, 18 h.
The subject of series [5] is Candida albicans. Put plainly: Antifungal activity against Candida albicans ATCC 10231 assessed as growth inhibition measured after 48 hrs by CLSI based method. The class given is functional. Particulars: ATCC 10231, 48 h.
The test system of series [6] is HaCaT. Put plainly: Cytotoxicity against human HaCaT cells assessed as growth inhibition measured after 24 hrs by MTT assay. It counts as cell-based.
Series [7] can be described thus: Hemolytic activity in human RBC induction of hemolysis at 128 ug/ml at MIC after 60 mins by spectrophotometric method relative to control. The class given is cell-based, Erythrocyte. The note with it: human red blood cells (erythrocytes), read-out: Activity.
Series [8] is described as follows: Critical micelle concentration of compound by ITC method. It counts as physicochemical.
Series [9] can be described thus: Critical micelle concentration of compound. The class given is physicochemical.
Series [10] can be described thus: Surfactant-like property of compound at CMC. The class given is physicochemical.
The test system of series [11] is Lipid bilayer. Put plainly: Binding affinity to POPC large unilamellar vesicle at 0.2 mM by ITC method.
Series [12] in a line: Binding affinity to DPPG lipid assessed as change in melting temperature at 10:1 molar ratio of lipid:lipopeptide by FTIR analysis.
For series [13], the system named is Lipid bilayer. Put plainly: Binding affinity to DPPG large unilamellar vesicles at 298 kelvin by ITC method.
The subject of series [14] is Lipid bilayer. Kind of series: Binding affinity to DPPG large unilamellar vesicles at 323 kelvin by ITC method.
Series [15] concerns Lipid bilayer. Kind of series: Binding affinity to POPG large unilamellar vesicle at 298 kelvin by ITC method.

Structures are written as SMILES. Converted amounts (≈) assume the structure as drawn. The source made the active and inactive calls. The calls are words filed in the database; no cut-off is given here. Where a SMILES comes first, the peptide text is derived from it. [ ]: non-standard residue; d: D form. The star is where a group is joined. ξ: configuration not given here. Palmitoyl = CCCCCCCCCCCCCCCC(=O)*; Myristoyl = CCCCCCCCCCCCCC(=O)*; Lauroyl = CCCCCCCCCCCC(=O)*; Decanoyl = CCCCCCCCCC(=O)*; ξDab = NCCC(N)C(=O)O; ξDap = NCC(N)C(=O)O

For `CCCCCCCCCCCC(=O)NCCC(NC(=O)CCCCCCCCCCC)C(=O)N[C@@H](CCCCN)C(=O)N[C@@H](CCCCN)C(=O)N[C@@H](CCCCN)C(N)=O` (some centres not stated) (Lauroyl-[ξDab](Lauroyl)KKK-NH2), the MIC in [1] worked out at 64 µg/mL (≈ 73.9 µM); in [2] it was 8 µg/mL (≈ 9.23 µM); in series [3], 64 µg/mL (≈ 73.9 µM); in series [4], 64 µg/mL (≈ 73.9 µM); in [5] it was 16 µg/mL (≈ 18.5 µM). Besides, the IC50 in [6] turned out to be 30.7 µg/mL (≈ 35.4 µM). The hemolysis at 1 h, 128 ug/ml in [7] stood at 13%. In addition, the CMC in series [8] is 1.34 mM; in series [9], 1.25 mM. This compound came in with a gammaCMC in series [10] of 40 mN/meter. Further, the outcome in [11] was inactive.

For `CCCCCCCCCCCCCC(=O)NCCC(NC(=O)CCCCCCCCCCCCC)C(=O)N[C@@H](CCCCN)C(=O)N[C@@H](CCCCN)C(=O)N[C@@H](CCCCN)C(N)=O` (some centres not stated) (Myristoyl-[ξDab](Myristoyl)KKK-NH2), the MIC in series [1], in [2], in [3], in series [4] and in series [5] was above 512 µg/mL in each case. In addition, the values for the CMC in series [8] and in series [9] were 0.28 to 0.53 mM and 0.45 mM, respectively. In series [10], this compound returned a gammaCMC of 46.9 mN/meter. In addition, the outcome in series [11] was inactive.

As for `CCCCCCCCCC(=O)NCCC(NC(=O)CCCCCCCCC)C(=O)N[C@@H](CCCCN)C(=O)N[C@@H](CCCCN)C(=O)N[C@@H](CCCCN)C(N)=O` (some centres not stated) (Decanoyl-[ξDab](Decanoyl)KKK-NH2), the MIC stood at 8 µg/mL (≈ 9.87 µM) in series [1]; 4 µg/mL (≈ 4.94 µM) in [2]; 16 µg/mL (≈ 19.7 µM) in series [3]; 8 µg/mL (≈ 9.87 µM) in series [4]; 16 µg/mL (≈ 19.7 µM) in [5]. Further, the IC50 in series [6] was 1.16 µg/mL (≈ 1.43 µM). Also, in series [9], the CMC is reported as 3.16 mM. Besides, in series [10], the gammaCMC is recorded as 41.5 mN/meter. Besides, the ΔTm in series [12] was in the range of 2.5 to 3 °C. Also, the outcome in series [11] was inactive.

In turn, `CCCCCCCCCCCCCCCC(=O)NCC(NC(=O)CCCCCCCCCCCCCCC)C(=O)O` (configuration not stated) returned a pK in series [13] of 4.26 to 6.99. The pK entry in series [14] was “inactive”. Moreover, the result in series [11] was inactive.

For `CCCCCCCCCCCC(=O)NCC(NC(=O)CCCCCCCCCCC)C(=O)N[C@@H](CCCCN)C(=O)N[C@@H](CCCCN)C(=O)N[C@@H](CCCCN)C(N)=O` (some centres not stated) (Lauroyl-[ξDap](Lauroyl)KKK-NH2), the MIC was found to be 32 µg/mL (≈ 37.5 µM) in [1]; 8 µg/mL (≈ 9.39 µM) in [2]; 256 µg/mL (≈ 300 µM) in series [3]; 128 µg/mL (≈ 150 µM) in series [4]; 8 µg/mL (≈ 9.39 µM) in series [5]. For the same compound, the IC50 in series [6] worked out at 43.3 µg/mL (≈ 50.8 µM). For the same compound, the hemolysis at 1 h, 128 ug/ml in series [7] came to 50%. Besides, the results for the CMC in [8] and in series [9] were 1.53 mM and 1.41 mM, respectively. In series [10], this compound gave a gammaCMC of 41.3 mN/meter. Also, the result in [11] was inactive.

As to `CCCCCCCCCCCCCCCC(=O)NCCC(NC(=O)CCCCCCCCCCCCCCC)C(=O)N[C@@H](CCCCN)C(=O)N[C@@H](CCCCN)C(=O)N[C@@H](CCCCN)C(N)=O` (some centres not stated) (Palmitoyl-[ξDab](Palmitoyl)KKK-NH2), the MIC in series [1] was above 512 µg/mL; in series [2] it was 256 µg/mL (≈ 262 µM); in [3] it was above 512 µg/mL; in series [4] it was above 512 µg/mL; in series [5] it was above 512 µg/mL. For the same compound, the CMC in [8] is 0.06 to 0.22 mM; in [9], 0.32 mM. For the same compound, the gammaCMC in series [10] worked out at 41.5 mN/meter. Further, in series [11], the outcome was inactive.

For `CCCCCCCCCCCCCC(=O)NCC(NC(=O)CCCCCCCCCCCCC)C(=O)N[C@@H](CCCCN)C(=O)N[C@@H](CCCCN)C(=O)N[C@@H](CCCCN)C(N)=O` (some centres not stated) (Myristoyl-[ξDap](Myristoyl)KKK-NH2), the MIC in [1] was above 512 µg/mL; in [2], 128 µg/mL (≈ 141 µM); in series [3] it was above 512 µg/mL; in series [4], above 512 µg/mL; in [5], above 512 µg/mL. For the same compound, the CMC in series [8] and in series [9] was 0.35 mM throughout. Besides, the gammaCMC in series [10] is 46.1 mN/meter. In addition, in series [11], the result was inactive.

`CCCCCCCCCCCC(=O)NCCCC[C@H](NC(=O)CCCCCCCCCCC)C(=O)N[C@@H](CCCCN)C(=O)N[C@@H](CCCCN)C(=O)N[C@@H](CCCCN)C(N)=O` (Lauroyl-K(Lauroyl)KKK-NH2): the MIC was found to be 64 µg/mL (≈ 71.6 µM) in series [1]; 16 µg/mL (≈ 17.9 µM) in series [2]; 128 µg/mL (≈ 143 µM) in series [3]; 256 µg/mL (≈ 286 µM) in [4]; 8 µg/mL (≈ 8.95 µM) in series [5]. In series [6], the IC50 amounted to 31.1 µg/mL (≈ 34.8 µM). The result in series [11] was inactive.

On to `CCCCCCCCCCCCCC(=O)NCCCC[C@H](NC(=O)CCCCCCCCCCCCC)C(=O)N[C@@H](CCCCN)C(=O)N[C@@H](CCCCN)C(=O)N[C@@H](CCCCN)C(N)=O` (Myristoyl-K(Myristoyl)KKK-NH2), for which the MIC in series [1] is above 512 µg/mL; in series [2], 256 µg/mL (≈ 269 µM); in series [3], above 512 µg/mL; in series [4], 512 µg/mL (≈ 539 µM); in series [5], 512 µg/mL (≈ 539 µM). For the same compound, the outcome in [11] was inactive.

For the compound `CCCCCCCCCC(=O)NCC(NC(=O)CCCCCCCCC)C(=O)N[C@@H](CCCCN)C(=O)N[C@@H](CCCCN)C(=O)N[C@@H](CCCCN)C(N)=O` (some centres not stated) (Decanoyl-[ξDap](Decanoyl)KKK-NH2), the MIC in series [1] turned out to be 2 µg/mL (≈ 2.51 µM); in series [2] it was 4 µg/mL (≈ 5.02 µM); in [3], 8 µg/mL (≈ 10 µM); in series [4], 4 µg/mL (≈ 5.02 µM); in series [5] it was 16 µg/mL (≈ 20.1 µM). For the same compound, the IC50 in series [6] was 75 µg/mL (≈ 94.2 µM). This compound also returned a CMC in series [9] of 3.24 mM. The gammaCMC in [10] turned out to be 42.5 mN/meter. Besides, the ΔTm in series [12] lay within 2.5 to 3 °C. Further, the outcome in series [11] was inactive.

Turning to `CCCCCCCCCCCC(=O)NCCC(NC(=O)CCCCCCCCCCC)C(=O)O` (configuration not stated), the pK in series [15] was 4.1; in [13], 5.14 to 7.38; in series [14], 4.52. In series [11], the result was inactive.

For the compound `CCCCCCCCCC(=O)NCCC(NC(=O)CCCCCCCCC)C(=O)O` (configuration not stated), the pK in series [13] is 5.76 to 7.37; in series [14], 5.06. Besides, in series [11], the result was inactive.

Turning to `CCCCCCCCCCCCCCCC(=O)NCC(NC(=O)CCCCCCCCCCCCCCC)C(=O)N[C@@H](CCCCN)C(=O)N[C@@H](CCCCN)C(=O)N[C@@H](CCCCN)C(N)=O` (some centres not stated) (Palmitoyl-[ξDap](Palmitoyl)KKK-NH2), the MIC in series [1] was above 512 µg/mL; in series [2], 512 µg/mL (≈ 531 µM); in series [3], above 512 µg/mL; in [4], above 512 µg/mL; in [5], above 512 µg/mL. The CMC is 0.35 to 0.7 mM in series [8] and 0.32 mM in [9]. The same compound displayed a gammaCMC in series [10] of 45.9 mN/meter. Moreover, in series [11], the result was inactive.

As to `CCCCCCCCCC(=O)NCC(NC(=O)CCCCCCCCC)C(=O)O` (configuration not stated), the figures for the pK in series [15], in series [13] and in series [14] were 6.83 to 50.7, 6.59 to 7.4 and 4.5, respectively. Besides, the result in series [11] was inactive.

On to `CCCCCCCCCCCC(=O)NCC(NC(=O)CCCCCCCCCCC)C(=O)O` (configuration not stated), for which the pK in [15] was found to be 6.34; in series [13] it was 7.18; in series [14] it was 5.37. In addition, the result in series [11] was inactive.

Take `CCCCCCCCCCCCCCCC(=O)NCCCC[C@H](NC(=O)CCCCCCCCCCCCCCC)C(=O)N[C@@H](CCCCN)C(=O)N[C@@H](CCCCN)C(=O)N[C@@H](CCCCN)C(N)=O` (Palmitoyl-K(Palmitoyl)KKK-NH2): the MIC in series [1], in [2], in [3], in series [4] and in series [5] was above 512 µg/mL each time. The outcome in series [11] was inactive.

With `CCCCCCCCCC(=O)NCCCC[C@H](NC(=O)CCCCCCCCC)C(=O)N[C@@H](CCCCN)C(=O)N[C@@H](CCCCN)C(=O)N[C@@H](CCCCN)C(N)=O` (Decanoyl-K(Decanoyl)KKK-NH2), the MIC amounted to 64 µg/mL (≈ 76.4 µM) in series [1]; 2 µg/mL (≈ 2.39 µM) in [2]; 16 µg/mL (≈ 19.1 µM) in [3]; 8 µg/mL (≈ 9.54 µM) in [4]; 8 µg/mL (≈ 9.54 µM) in [5]. Besides, in series [6], the IC50 is 18.8 µg/mL (≈ 22.4 µM). Further, the result in series [11] was inactive.

Source of the values: ChEMBL document CHEMBL4406885, “Effect of self-assembly on antimicrobial activity of double-chain short cationic lipopeptides” (Bioorg Med Chem, 2019).
